# Values of other authors in PMC12266345, “Discovery and characterization of selective lipase-inhibiting polyheterocyclic derivatives: a combined in silico and in vitro study” (Turkish Journal of Biology, 2025).
# Like-named read-outs stand apart in the source and are kept apart here.
# Target: lipase
# [1] = ref Ruiz et al., 2006, Benarous et al., 2015
structure (smiles),measurement,setting,value
O=C(N[C@H](CO)[C@H](O)c1ccc([N+](=O)[O-])cc1)C(Cl)Cl [Chloramphenicol],IC50 lipase inhibition,"ref Liu et al., 2006",220 ± 0.003 µg/mL
O.Oc1cc(O)c2c(c1)O[C@H](c1ccc(O)c(O)c1)[C@@H](O)C2 [catechin],IC50 lipase inhibition,[1],183 µg/mL
Cc1nc(-c2ccc(OCC(C)C)c(C#N)c2)sc1C(=O)O [febuxostat],IC50 lipase inhibition,"ref Serseg and Benarous, 2018",660 µg/mL
Nc1nc(=O)c2nc(CNc3ccc(C(=O)N[C@@H](CCC(=O)O)C(=O)O)cc3)cnc2[nH]1 [folic acid],IC50 lipase inhibition,"ref Serseg and Benarous, 2018",640 µg/mL
COc1ccc2c3c([nH]c2c1)C(C)=NCC3 [harmaline],IC50 lipase inhibition,[1],830 µg/mL
O=c1cc(O)cc(/C=C/c2ccc(O)c(O)c2)o1 [hispidin],IC50 lipase inhibition,[1],179 µg/mL
CCOC(=O)N1CCC(=C2c3ccc(Cl)cc3CCc3cccnc32)CC1 [loratadine],IC50 lipase inhibition,"ref Benarous et al., 2018",440 ± 0.02 µg/mL
CN(C)[C@@H]1C(O)=C(C(N)=O)C(=O)[C@@]2(O)C(O)=C3C(=O)c4c(O)cccc4[C@@](C)(O)[C@H]3C[C@@H]12 [tetracycline],IC50 lipase inhibition,"ref Liu et al., 2006",470 ± 0.005 µg/mL
